In patent US20260078120A1, “SUBSTITUTED PYRIDOPYRIMIDINONES” (MIRATI THERAPEUTICS, INC., priority 2022, published 2026):

Key:
[1] = tested on: T47D (PI3Kα H1047R mutant) cells; test: CellTiter-Glo 2.0 luminescent cell viability assay, 72 hours, T47D cells; type: cell-based; details: Homo sapiens, T47D, 72 h, T47D (PI3Kα H1047R mutant) cells, CellTiter-Glo, approximately 72 hours; read-out: T47D (H1047R mutant) Viability IC50
Description: This Example illustrates that exemplary compounds of the present invention decrease the viability of cells.
(§1) The ability of a compound of Formula (I) to decrease the viability of cells was measured using CellTiter-Glo 2.0 (CTG) Luminescent Cell Viability Assay (#G9241) obtained from Promega (Madison, WI).
To prepare assay plates for viability assays, cells were trypsinized, resuspended in fresh media, and viable cells were counted utilizing trypan blue exclusion. T47D, SKBR3, or MKN1 cells were seeded at 1000 cells in 30 μl per well in a solid white flat bottom 384 cell culture plate (Perkin Elmer #6007680) and incubated at 37° C. overnight.
(§2) Assay day 1, cells were dosed using an Echo Liquid Handler (Beckman Coulter) with compounds at a 10 um starting concentration and serially diluted (1:4) for a total of 10 concentrations. Cells were incubated for approximately 72 hours with the compounds (solubilized in DMSO) at 37° C. After 72 hours of treatment, cell plates were equilibrated to room temperature before adding 15 μl of CTG to each well, plates were then covered in aluminum foil to protect from light, incubated at room temperature for 30 minutes on a microtiter plate shaker, and luminescence readings were collected using a CLARIOstar microplate reader (BMG Labtech, Germany). Percent of vehicle control values were plotted as log (inhibitor) vs. response-Variable slope (four parameters) for curve fitting and IC50 values were determined using XLfit.

[2] = tested on: SKBR3 (PI3Kα wild type) cells; test: CellTiter-Glo 2.0 luminescent cell viability assay, 72 hours, SKBR3 cells; type: cell-based; details: Homo sapiens, SK-BR-3, 72 h, SKBR3 (PI3Kα wild type) cells, CellTiter-Glo, approximately 72 hours; read-out: SKBR3 (WT) Viability IC50
Description: as §1
To prepare assay plates for viability assays, cells were trypsinized, resuspended in fresh media, and viable cells were counted utilizing trypan blue exclusion.
as §2

Compound	IC50 [1]	IC50 [2]
Cc1cc([C@@H](C)Nc2ccccc2C(=O)O)c2nc(N3Cc4ccc(F)cc4C3)c(C)c(=O)n2c1 [Example 10-134, (R)-2-((1-(2-(5-fluoroisoindolin-2-yl)-3,7-dimethyl-4-oxo-4H-pyrido[1,2-a]pyrimidin-9-yl)ethyl)amino)benzoic acid]	56.6 nM	> 10000 nM
Cc1cc([C@@H](C)Nc2ccccc2C(=O)O)c2nc(N3CCC(O)(C(C)C)C3)c(C)c(=O)n2c1 (stereo partly drawn) [Example 10-135, 2-(((1R)-1-(2-(3-hydroxy-3-isopropylpyrrolidin-1-yl)-3,7-dimethyl-4-oxo-4H-pyrido[1,2-a]pyrimidin-9-yl)ethyl)amino)benzoic acid]	61 nM	> 10000 nM
Cc1cc([C@@H](C)Nc2ccccc2C(=O)O)c2nc(N3CC4CC3CC4C)c(C)c(=O)n2c1 (stereo partly drawn) [Example 10-136, 2-(((1R)-1-(3,7-dimethyl-2-(5-methyl-2-azabicyclo[2.2.1]heptan-2-yl)-4-oxo-4H-pyrido[1,2-a]pyrimidin-9-yl)ethyl)amino)benzoic acid]	64.2 nM	> 10000 nM
Cc1cc([C@@H](C)Nc2ccccc2C(=O)O)c2nc(N3Cc4ccc(CO)cc4C3)c(C)c(=O)n2c1 [Example 10-137, (R)-2-((1-(2-(5-(hydroxymethyl)isoindolin-2-yl)-3,7-dimethyl-4-oxo-4H-pyrido[1,2-a]pyrimidin-9-yl)ethyl)amino)benzoic acid]	69.5 nM	> 10000 nM
Cc1cc([C@@H](C)Nc2ccccc2C(=O)O)c2nc(N3CCC4(CCOC4)C3)c(C)c(=O)n2c1 (stereo partly drawn) [Example 10-138, 2-(((1R)-1-(3,7-dimethyl-4-oxo-2-(2-oxa-7-azaspiro[4.4]nonan-7-yl)-4H-pyrido[1,2-a]pyrimidin-9-yl)ethyl)amino)benzoic acid]	71.5 nM	> 10000 nM
COc1cc2c(cc1OC)CN(c1nc3c([C@@H](C)Nc4ccccc4C(=O)O)cc(C)cn3c(=O)c1C)C2 [Example 10-139, (R)-2-((1-(2-(5,6-dimethoxyisoindolin-2-yl)-3,7-dimethyl-4-oxo-4H-pyrido[1,2-a]pyrimidin-9-yl)ethyl)amino)benzoic acid]	74.3 nM	> 10000 nM
Cc1cc([C@@H](C)Nc2ccccc2C(=O)O)c2nc(N3CCC(c4ccccn4)C3)c(C)c(=O)n2c1 (stereo partly drawn) [Example 10-142, 2-(((1R)-1-(3,7-dimethyl-4-oxo-2-(3-(pyridin-2-yl)pyrrolidin-1-yl)-4H-pyrido[1,2-a]pyrimidin-9-yl)ethyl)amino)benzoic acid]	80.1 nM	> 10000 nM
Cc1cc([C@@H](C)Nc2ccccc2C(=O)O)c2nc(N3CCC4(CCC(O)C4)CC3)c(C)c(=O)n2c1 (stereo partly drawn) [Example 10-143, 2-(((1R)-1-(2-(2-hydroxy-8-azaspiro[4.5]decan-8-yl)-3,7-dimethyl-4-oxo-4H-pyrido[1,2-a]pyrimidin-9-yl)ethyl)amino)benzoic acid]	83.1 nM	> 10000 nM
Cc1cc([C@@H](C)Nc2ccccc2C(=O)O)c2nc(N3CC4(CO)CCCC3C4)c(C)c(=O)n2c1 (stereo partly drawn) [Example 10-144, 2-(((1R)-1-(2-(1-(hydroxymethyl)-6-azabicyclo[3.2.1]octan-6-yl)-3,7-dimethyl-4-oxo-4H-pyrido[1,2-a]pyrimidin-9-yl)ethyl)amino)benzoic acid]	91.3 nM	> 10000 nM
Cc1cc([C@@H](C)Nc2ccccc2C(=O)O)c2nc(N3CC4CC4(C(F)(F)F)C3)c(C)c(=O)n2c1 (stereo partly drawn) [Example 10-145, 2-(((1R)-1-(3,7-dimethyl-4-oxo-2-(1-(trifluoromethyl)-3-azabicyclo[3.1.0]hexan-3-yl)-4H-pyrido[1,2-a]pyrimidin-9-yl)ethyl)amino)benzoic acid]	98.5 nM	> 10000 nM
Cc1cc([C@@H](C)Nc2ccccc2C(=O)O)c2nc(N3CC4CCC(C3)C4O)c(C)c(=O)n2c1 (stereo partly drawn) [Example 10-146, 2-(((1R)-1-(2-(8-hydroxy-3-azabicyclo[3.2.1]octan-3-yl)-3,7-dimethyl-4-oxo-4H-pyrido[1,2-a]pyrimidin-9-yl)ethyl)amino)benzoic acid]	100 nM	> 10000 nM
Cc1cc([C@@H](C)Nc2ccccc2C(=O)O)c2nc(N3CC4CCC3C(O)C4)c(C)c(=O)n2c1 (stereo partly drawn) [Example 10-147, 2-(((1R)-1-(2-(6-hydroxy-2-azabicyclo[2.2.2]octan-2-yl)-3,7-dimethyl-4-oxo-4H-pyrido[1,2-a]pyrimidin-9-yl)ethyl)amino)benzoic acid]	107 nM	> 10000 nM
Cc1cc([C@@H](C)Nc2ccccc2C(=O)O)c2nc(N3CC45COCC4(COC5)C3)c(C)c(=O)n2c1 (stereo partly drawn) [Example 10-148, 2-(((R)-1-(2-((3aS,6aS)-1H,3H,4H-3a,6a-(methanooxymethano)furo[3,4-c]pyrrol-5(6H)-yl)-3,7-dimethyl-4-oxo-4H-pyrido[1,2-a]pyrimidin-9-yl)ethyl)amino)benzoic acid]	108 nM	> 10000 nM
Cc1cc([C@@H](C)Nc2ccccc2C(=O)O)c2nc(N3CCC(C(C)(C)C)n4nccc43)c(C)c(=O)n2c1 (stereo partly drawn) [Example 11-13, 2-(((1R)-1-(2-(7-(tert-butyl)-6,7-dihydropyrazolo[1,5-a]pyrimidin-4(5H)-yl)-3,7-dimethyl-4-oxo-4H-pyrido[1,2-a]pyrimidin-9-yl)ethyl)amino)benzoic acid]	324 nM	> 10000 nM
Cc1cc([C@@H](C)Nc2ccccc2C(=O)O)c2nc(N3CCC(c4ccccc4)C3)c(C)c(=O)n2c1 (stereo partly drawn) [Example 11-14, 2-(((1R)-1-(3,7-dimethyl-4-oxo-2-(3-phenylpyrrolidin-1-yl)-4H-pyrido[1,2-a]pyrimidin-9-yl)ethyl)amino)benzoic acid]	233 nM	> 10000 nM
Cc1cc([C@@H](C)Nc2ccccc2C(=O)O)c2nc(N3Cc4nc(C)sc4C3)c(C)c(=O)n2c1 [Example 11-15, (R)-2-((1-(3,7-dimethyl-2-(2-methyl-4,6-dihydro-5H-pyrrolo[3,4-d]thiazol-5-yl)-4-oxo-4H-pyrido[1,2-a]pyrimidin-9-yl)ethyl)amino)benzoic acid]	156 nM	> 10000 nM
Cc1cc([C@@H](C)Nc2ccccc2C(=O)O)c2nc(N3CC(c4ccccn4)C3)c(C)c(=O)n2c1 [Example 11-16, (R)-2-((1-(3,7-dimethyl-4-oxo-2-(3-(pyridin-2-yl)azetidin-1-yl)-4H-pyrido[1,2-a]pyrimidin-9-yl)ethyl)amino)benzoic acid]	389 nM	> 10000 nM
Cc1ccc2c(c1)CN(c1nc3c([C@@H](C)Nc4ccccc4C(=O)O)cc(C)cn3c(=O)c1C)C2 [Example 11-17, (R)-2-((1-(3,7-dimethyl-2-(5-methylisoindolin-2-yl)-4-oxo-4H-pyrido[1,2-a]pyrimidin-9-yl)ethyl)amino)benzoic acid]	796 nM	> 10000 nM
Cc1cc([C@@H](C)Nc2ccccc2C(=O)O)c2nc(N3CC(c4ccccc4)C3)c(C)c(=O)n2c1 [Example 11-18, (R)-2-((1-(3,7-dimethyl-4-oxo-2-(3-phenylazetidin-1-yl)-4H-pyrido[1,2-a]pyrimidin-9-yl)ethyl)amino)benzoic acid]	416 nM	> 10000 nM
Cc1cc([C@@H](C)Nc2ccccc2C(=O)O)c2nc(N3Cc4ccccc4C3CO)c(C)c(=O)n2c1 (stereo partly drawn) [Example 11-19, 2-(((1R)-1-(2-(1-(hydroxymethyl)isoindolin-2-yl)-3,7-dimethyl-4-oxo-4H-pyrido[1,2-a]pyrimidin-9-yl)ethyl)amino)benzoic acid]	173 nM	> 10000 nM
Cc1cc([C@@H](C)Nc2ccccc2C(=O)O)c2nc(N3CCC(C4CCC4)CC3)c(C)c(=O)n2c1 [Example 11-20, (R)-2-((1-(2-(4-cyclobutylpiperidin-1-yl)-3,7-dimethyl-4-oxo-4H-pyrido[1,2-a]pyrimidin-9-yl)ethyl)amino)benzoic acid]	316 nM	> 10000 nM
Cc1cc([C@@H](C)Nc2ccccc2C(=O)O)c2nc(N3CC(c4cccnc4)C3)c(C)c(=O)n2c1 [Example 11-21, (R)-2-((1-(3,7-dimethyl-4-oxo-2-(3-(pyridin-3-yl)azetidin-1-yl)-4H-pyrido[1,2-a]pyrimidin-9-yl)ethyl)amino)benzoic acid]	239 nM	> 10000 nM
Cc1cc([C@@H](C)Nc2ccccc2C(=O)O)c2nc(N3CC4CC5CC4C3C5O)c(C)c(=O)n2c1 (stereo partly drawn) [Example 11-22, 2-(((1R)-1-(2-(6-hydroxyhexahydro-3,5-methanocyclopenta[b]pyrrol-1(2H)-yl)-3,7-dimethyl-4-oxo-4H-pyrido[1,2-a]pyrimidin-9-yl)ethyl)amino)benzoic acid]	192 nM	> 10000 nM
Cc1cc([C@@H](C)Nc2ccccc2C(=O)O)c2nc(N3CCC(N4CCC(F)(F)CC4)CC3)c(C)c(=O)n2c1 [Example 11-23, (R)-2-((1-(2-(4,4-difluoro-[1,4′-bipiperidin]-1′-yl)-3,7-dimethyl-4-oxo-4H-pyrido[1,2-a]pyrimidin-9-yl)ethyl)amino)benzoic acid]	139 nM	> 10000 nM
